US12404239B2, “Modulators of BCL6 as ligand directed degraders” (Celgene Corporation, priority 2022, dated 2025)

Each compound was assayed against T1, BCL6 (Homo sapiens, UniProt P41182) (assay: 24 h degradation assay (BCL6 HiBiT)). Conditions: read-out: YCon (% remaining maximal effect).
T1 construct: HiBiT-tag knocked into endogenous BCL6 locus using CRISPR; endogenous in cells; host or cells: DHL-4_BCL6_HiBiT cells (CRISPR knock-in)
Format: cell-based
Protocol: A DHL-4 cell line with HiBiT-tag knocked into endogenous BCL6 locus using CRISPR was generated. The DHL-4_BCL6_HiBiT cells were dispensed into 384-well plates (Corning no. 3570) that were pre-spotted with compounds. Compounds were dispensed by an acoustic dispenser (ATS acoustic transfer system from EDC Biosystems) into a 384-well plate in a 10-point dose response curve using 3-fold dilutions starting at 1-10 μM and going down to 0.0015-0.00015 μM. 25 μL of media (RPMI-1640+10% heat inactivated FBS+1×Pen/Strep) containing 2500 of DHL-4 was dispensed per well. […] After incubation, 25 μL of the Nano-Glo HiBiT lytic detection working solution (Promega, catalogue no. N3040, Madison, WI) was added to each well and incubated at room temperature for 15-30 min, protected from light. After 30 min, luminescence was read on an Envision or PHERAstar luminescence reader. To determine the EC50 value (the half-maximum effective concentration) and the level of the gradation (Yconstant) of a BCL6 degrader, luminescent signal normalized by DMSO control (Y) and compound concentration (x) was fitted using a four-parameter dose-response model (Y=(A+((B−A)/1+((C/x)^D) in Dotmatics. Fitted value C is the degradation EC50 and the minimum value A is the Y constant.

| Emax | SMILES |
| --- | --- |
| 20 to 60% | CO[C@@H]1CN(c2ncc(C#N)c(Nc3ccc4c(c3)CC(=O)N4C)n2)CC[C@H]1Nc1ccc2c(C3CCC(=O)NC3=O)nn(C)c2c1 (stereo partly drawn) [Example 145, 2-((3R,4R)-4-((3-(2,6-dioxopiperidin-3-yl)-1-methyl-1H-indazol-6-yl)amino)-3-methoxypiperidin-1-yl)-4-((1-methyl-2-oxoindolin-5-yl)amino) pyrimidine-5-carbonitrile] |
| 20 to 60% | C[C@@H]1C[C@H](N(C)c2ncc(Cl)c(Nc3ccc4c(c3)CC(=O)N4C)n2)CC(=O)N1c1ccc2c(C3CCC(=O)NC3=O)nn(C)c2c1 (stereo partly drawn) [Example 150, 3-(6-((2R,4S)-4-((5-chloro-4-((1-methyl-2-oxoindolin-5-yl)amino)pyrimidin-2-yl)(methyl)amino)-2-methyl-6-oxopiperidin-1-yl)-1-methyl-1H-indazol-3-yl) piperidine-2,6-dione] |
| < 20% | C[C@@H]1C[C@@H](N(C)c2ncc(Cl)c(Nc3ccc4c(c3)CC(=O)N4C)n2)CC(=O)N1c1ccc2c(C3CCC(=O)NC3=O)nn(C)c2c1 (stereo partly drawn) [Example 151, 3-(6-((2R,4R)-4-((5-chloro-4-((1-methyl-2-oxoindolin-5-yl)amino)pyrimidin-2-yl)(methyl)amino)-2-methyl-6-oxopiperidin-1-yl)-1-methyl-1H-indazol-3-yl) piperidine-2,6-dione] |
| > 60% | C[C@H]1C[C@@H](N(C)c2ncc(Cl)c(Nc3ccc4c(c3)CC(=O)N4C)n2)CC(=O)N1c1ccc2c(C3CCC(=O)NC3=O)nn(C)c2c1 (stereo partly drawn) [Example 152, 3-(6-((2S,4R)-4-((5-chloro-4-((1-methyl-2-oxoindolin-5-yl)amino)pyrimidin-2-yl)(methyl)amino)-2-methyl-6-oxopiperidin-1-yl)-1-methyl-1H-indazol-3-yl) piperidine-2,6-dione] |
| < 20% | C[C@H]1C[C@H](N(C)c2ncc(Cl)c(Nc3ccc4c(c3)CC(=O)N4C)n2)CC(=O)N1c1ccc2c(C3CCC(=O)NC3=O)nn(C)c2c1 (stereo partly drawn) [Example 153, 3-(6-((2S,4S)-4-((5-chloro-4-((1-methyl-2-oxoindolin-5-yl)amino)pyrimidin-2-yl)(methyl)amino)-2-methyl-6-oxopiperidin-1-yl)-1-methyl-1H-indazol-3-yl) piperidine-2,6-dione] |

What follows are compounds tested against T1, BCL6 (assay: BCL6_HiBiT degradation assay (2 h)). Conditions: DHL-4_BCL6_HiBiT cells, read-out: YCon (% remaining maximal effect).
Format: cell-based
Outline: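 DHL-4 cells carrying CRISPR HiBiT knock-in at endogenous BCL6, treated 2 h at 37 °C with 10-point 3-fold dilutions from 1-10 μM. BCL6 level read by Nano-Glo HiBiT lytic luminescence normalized to DMSO; four-parameter fit gives degradation EC50 and Yconstant (% remaining at maximal effect).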

| SMILES | Percent BCL6 remaining at maximal degradation (Ycon) |
| --- | --- |
| CO[C@@H]1CN(c2ncc(Cl)c(Nc3ccc4c(c3)CC(=O)N4C)n2)CC[C@H]1Nc1ccc2c(N3CCC(=O)NC3=O)nn(C)c2c1 [Example 156, 1-(6-(((3R,4R)-1-(5-chloro-4-((1-methyl-2-oxoindolin-5-yl)amino)pyrimidin-2-yl)-3-methoxypiperidin-4-yl)amino)-1-methyl-1H-indazol-3-yl) dihydropyrimidine-2,4(1H,3H)-dione] | 20 to 60% |
| CO[C@@H]1CN(c2ncc(C#N)c(Nc3ccc4c(c3)CC(=O)N4C)n2)CC[C@H]1Nc1ccc2c(N3CCC(=O)NC3=O)nn(C)c2c1 [Example 157, 2-((3R,4R)-4-((3-(2,4-dioxotetrahydropyrimidin-1(2H)-yl)-1-methyl-1H-indazol-6-yl)amino)-3-methoxypiperidin-1-yl)-4-((1-methyl-2-oxoindolin-5-yl)amino) pyrimidine-5-carbonitrile] | 20 to 60% |

Further lines, results first:

| Percent BCL6 remaining at maximal degradation (Ycon) | SMILES |
| --- | --- |
| 20 to 60% | CO[C@@H]1CN(c2ncc(C#N)c(Nc3ccc4c(c3)CC(=O)N4C)n2)CC[C@H]1Nc1ccc2c(C3(C)CCC(=O)NC3=O)nn(C)c2c1 (stereo partly drawn) [Example 155, 2-((3R,4R)-3-methoxy-4-((1-methyl-3-(3-methyl-2,6-dioxopiperidin-3-yl)-1H-indazol-6-yl)amino)piperidin-1-yl)-4-((1-methyl-2-oxoindolin-5-yl)amino) pyrimidine-5-carbonitrile] |
| 20 to 60% | CO[C@@H]1CN(c2nc(F)c(Cl)c(Nc3ccc4c(c3)CC(=O)N4C)n2)CC[C@H]1Nc1ccc2c(N3CCC(=O)NC3=O)nn(C)c2c1 [Example 158, 1-(6-(((3R,4R)-1-(5-chloro-4-fluoro-6-((1-methyl-2-oxoindolin-5-yl)amino)pyrimidin-2-yl)-3-methoxypiperidin-4-yl)amino)-1-methyl-1H-indazol-3-yl) dihydropyrimidine-2,4(1H,3H)-dione] |
| 20 to 60% | CO[C@@H]1CN(c2nc(F)c(Cl)c(Nc3ccc4c(c3)CC(=O)N4C)n2)CC[C@H]1Nc1ccc2c(C3(C)CCC(=O)NC3=O)nn(C)c2c1 (stereo partly drawn) [Example 159, 3-(6-(((3R,4R)-1-(5-chloro-4-fluoro-6-((1-methyl-2-oxoindolin-5-yl)amino)pyrimidin-2-yl)-3-methoxypiperidin-4-yl)amino)-1-methyl-1H-indazol-3-yl)-3-methylpiperidine-2,6-dione] |
